According to the METLIN SMRT retention time set (Domingo-Almenara et al. 2019):

Assay: gradient 5% acetonitrile 3 min, to 50% in 2 min, to 85% in 15 min, held 3 min, 100 µL/min
Details: column: Zorbax Extend-C18 2.1 x 50 mm; eluents: water / acetonitrile, 0.1% formic acid
Procedure, shortened: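 Values are retention times taken from adduct peaks that software picked and an analyst inspected. The pure standards were run as mixtures of ~100 molecules on HPLC linked to a quadrupole time-of-flight mass spectrometer, in positive and negative ionization mode. A Zorbax Extend-C18 column (2.1 × 50 mm, 1.8 μm) was used at 100 μL/min with water and acetonitrile, each including 0.1% formic acid.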

Row | SMILES | RP-LC retention time [s]
1 | CCOc1cc(S(=O)(=O)Nc2cccc(C)n2)c(C)cc1C | 779
2 | CC1CCc2[nH]nc(C(=O)N3CCCCC3)c2C1 (stereo unspecified) | 757
3 | CC(=O)N1CCc2cc(N3CC(C(=O)Nc4ccc(C(F)(F)F)cc4)CC3=O)ccc21 (stereo unspecified) | 798
4 | CCOc1ccccc1C(=O)n1nc(C)c(S(=O)(=O)N2CCCCC2)c1C | 1160
5 | Cc1ccn2cc(C(=O)NCc3ccc4c(c3)OCO4)nc2c1 | 679
6 | CNC(=O)[C@@H]1CN(C(=O)c2cncc(Br)c2)C[C@H]1COC | 576
7 | Cc1nc(SCC(=O)NCc2ccccc2Cl)cc(-c2ccccn2)n1 | 848
8 | O=C(NCCn1ccc2ccccc21)C(=O)c1cn(CC(=O)N2CCOCC2)c2ccccc12 | 871
9 | Cc1nc(CC(=O)Nc2nc(-c3ccc(-c4ccccc4)cc3)cs2)cs1 | 1160
10 | O=C(Cn1cccc1-c1nnc(C2CC2)o1)N1CCN(c2ccccc2F)CC1 | 872
11 | CCN(CC)C(=O)C1CCN(S(=O)(=O)Cc2ccccc2)CC1 | 759
12 | CC1=NS(=O)(=O)N(C)C=C1C(=O)OCc1ccc(C)cc1 | 975
13 | O=C(CCS(=O)(=O)c1ccccc1)Nc1ccc(-c2ccn[nH]2)cc1 | 648
14 | CCOc1cccc2cc(C(=O)Nc3ccc4c(c3)C(=O)N(C)C4=O)oc12 | 906
15 | CC(C)c1ccc(NC(=O)C(=O)NCCCN2CCN(c3ccccc3)CC2)cc1 | 631
16 | CCC1CN(C(=O)N2CCC(C(=O)NCCc3ccco3)CC2)c2ccccc2O1 (stereo unspecified) | 852
17 | Cc1ccc(S(=O)(=O)N2CCC(C(=O)NCCc3csc(-c4cccs4)n3)CC2)c(C)c1 | 955
18 | COc1cccc2nc3cc(C)c(C)cc3nc12 | 868
19 | Cc1nc(CCNC(=O)C(C)(C)C)no1 | 619
20 | O=C(NCCn1nc(-c2ccco2)ccc1=O)c1ccc2ncsc2c1 | 610
21 | CNC(=O)[C@@H]1C[C@H](Oc2ccccc2)CN1C(=O)c1n[nH]c(=O)c2ccccc12 | 650
22 | O=C(Nc1cccc(OCc2nnc(-c3ccccc3)o2)c1)c1cccnc1 | 750
23 | Cc1nc(CSc2nnc3ccc(-c4cccnc4)nn23)cs1 | 577
24 | Cc1oc(C2CCN(C(=O)C3CCCN(S(=O)(=O)N4CCCC4)C3)CC2)nc1C(=O)N1CCCC1 (stereo unspecified) | 737
25 | CCOC(=O)N1CCC(Nc2c(C(=O)OC)c(=O)[nH]c3ccc(F)cc23)CC1 | 705
26 | Cc1cccc(-c2noc(Cn3ccn(-c4cc(C)ccc4C)c(=O)c3=O)n2)c1 | 963

Row | SMILES | RP-LC retention time [s]
27 | Cc1cc(C(=O)N2CC(Oc3ccc(-c4nc(-c5ccccc5)no4)cc3)C2)n(C)n1 | 1060
28 | CC1CCN(S(=O)(=O)c2ccc(-c3nnc(C(=O)NCc4ccc(F)cc4)o3)cc2)CC1 | 1040
29 | Cn1c(=O)n(C)c2cc(S(=O)(=O)c3ccc(F)cc3)c(NC(=O)c3cccc(F)c3)cc21 | 896
30 | O=C(Cc1csc(NC(=O)c2ccco2)n1)Nc1ccc2c(c1)OCCO2 | 670
31 | COCCCNC(=O)c1nc(Nc2ccc(F)cc2)c2ccccc2n1 | 696
32 | O=S(=O)(Nc1cc(F)ccc1F)c1c[nH]c2ncccc12 | 715
33 | CCc1ccc2nc(C)cc(C(=O)NC3CC3)c2c1 | 605
34 | Cc1noc(CNC(=O)C2CCN(C(=O)c3snnc3C)CC2)n1 | 563
35 | COC(=O)c1nc(NC(=O)Cn2nc3c(cc2=O)CCCC3)sc1CC(C)C | 855
36 | O=C(CCN(CC1CCCO1)C(=O)c1ccc(C(F)(F)F)cc1)N1CCNCC1 (stereo unspecified) | 628
37 | COCCCNC(=O)C1CCCN(C(=O)c2cc(C)cc(C)c2)C1 (stereo unspecified) | 700
38 | CCC(C)Oc1nc2c(c(=O)n(C)c(=O)n2C)n1C (stereo unspecified) | 865
39 | CCOc1ccc(-c2nc(Cn3nnc(C(=O)Nc4ccccc4OC)c3C)c(C)o2)cc1 | 1150
40 | O=C(CSc1nnc2c3cc(-c4ccccc4)nn3ccn12)NCc1ccccc1 | 781
41 | CCOc1ccccc1C(=O)N1CCc2[nH]cnc2C12CCCCC2 | 641
42 | Cc1cccc(OCCn2c(CCO)nc3ccccc32)c1C | 599
43 | COC(=O)c1cccc(NC(=O)CSc2nccc(N3CCN(c4cccc(OC)c4)CC3)n2)c1 | 743
44 | Cc1nc(N2CCN(c3ccccn3)CC2)nc2c1C(=O)CC(c1ccccc1)C2 (stereo unspecified) | 757
45 | CSc1ccc(-c2noc(Cn3ncn4nc(-c5cccs5)cc4c3=O)n2)cc1 | 1130
46 | CCn1c(=O)c2cc(C(=O)NCc3cc(C)ccc3C)nn2c2ccccc21 | 930
47 | COc1ccc2c(c1)C1(CCN(C(=O)NCCC(C)C)C1)C(=O)N2 (stereo unspecified) | 716
48 | COc1ccccc1-c1nnc2sc(-c3cc(C)on3)nn12 | 823
49 | O=C(Cn1c(=O)cc(-c2nc(-c3ccccc3)no2)c2ccccc21)N1CCCC1 | 1000
50 | Cc1ccc(CNc2ccc3[nH]c(=O)[nH]c3c2)cc1 | 579
51 | Cc1ccc2c(c1)OCC(=O)N2Cc1nc(-c2ccc(Br)cc2)no1 | 1180
52 | Cn1nccc1C(=O)Nc1sc(-c2ccccc2)cc1C(N)=O | 810

Next, values leading:

Row | RP-LC retention time [s] | SMILES
53 | 923 | COc1ccc(-c2noc(-c3nn(-c4ccc(C)c(C)c4)ccc3=O)n2)cc1
54 | 872 | COc1ccc(OC)c(NS(=O)(=O)c2ccc3c(c2)C(=O)N(C)c2ncccc2O3)c1
55 | 814 | O=C1CCCN1Cc1noc(-c2cccc(Cl)c2)n1
56 | 984 | CCc1ccc(C2=C(C)C(N3CCCN(C(=O)CC4CCCC4)CC3)=NS2(=O)=O)cc1
57 | 628 | Cc1cc(C(=O)NC2CC2)no1
58 | 869 | CCOCCCNC(=O)c1c(-c2cccc(Br)c2)noc1C
59 | 708 | CCN(CC)C(=O)C1CCCN(c2ncnc3c2nc2n3CCCCC2)C1 (stereo unspecified)
60 | 648 | CCCN(C)C(=O)CCC1CCN(c2cc(NC3CC3)ncn2)CC1
61 | 826 | O=C(NCCC1=CCCCC1)C(=O)NCC1CCN(S(=O)(=O)C2CC2)CC1
62 | 801 | O=[N+]([O-])c1cccc(S(=O)(=O)Nc2ccc(O)c(-c3c(O)ccc4ccccc34)c2)c1
63 | 1160 | Fc1ccc(Cc2noc(-c3nc(-c4ccccc4)no3)n2)cc1
64 | 666 | CN(C)C(=O)Cn1c(=O)c2cccn2c2ccccc21
65 | 941 | Cc1cc(=O)n(CC(=O)Nc2ccc3c(c2)OCO3)c(-c2ccccc2)n1
66 | 695 | COc1ccc(-c2cc3n(n2)CCCN(C(=O)c2cnccn2)C3)cc1
67 | 824 | Cc1ccc(NC(=O)Cn2ccc3ccc(-c4nnc(C)o4)cc32)cc1
68 | 1180 | O=S(=O)(c1ccccc1Cl)N1CCc2nc(-c3ccc(Cl)cc3)ncc2C1
69 | 717 | CCOC(=O)c1noc2ncnc(Nc3ccc(OC)cc3)c12
70 | 736 | COC(=O)c1ccc2c(=O)n(-c3cc(OC)cc(OC)c3)c(N3CCC(C(N)=O)CC3)nc2c1
71 | 692 | CC(C)C(NC(=O)Cc1ccccc1F)C(=O)Nc1nc2ccccc2[nH]1 (stereo unspecified)
72 | 710 | CN(C)C(=O)c1cc2c(s1)CCC(C(=O)NCCc1ccccc1)C2 (stereo unspecified)

Row | RP-LC retention time [s] | SMILES
73 | 1190 | COc1ccc(-c2noc(-c3ccc(NC(=O)c4ccc(Br)o4)cc3)n2)cc1
74 | 781 | COc1ccc(CCNC(=O)NC(C)Cc2cccs2)cc1 (stereo unspecified)
75 | 978 | Cc1cc(C)n(Cc2nc(-c3ccc(NC(=O)Cc4ccccc4C)cc3)oc2C)n1
76 | 641 | COc1ccc(-c2cc3c(=O)n(CC(=O)N4CCN(c5ccccn5)CC4)ncn3n2)cc1
77 | 598 | CCOc1ccc(CN2C[C@@H]3C(=O)N(CCN4CCc5ccccc5C4)C(=O)[C@@H]3C2)cc1
78 | 643 | Cc1noc(CNC(=O)Cc2ccc(F)cc2)n1
79 | 761 | O=C(c1cocn1)N1CC(F)(F)C[C@H]1c1nnc(-c2ccccc2)o1
80 | 1280 | CCN(C(=O)c1cccs1)c1nc(-c2ccc(C)cc2)cs1
81 | 1210 | COc1cc(NC(=O)c2sc(-n3cccc3)nc2C(C)C)cc(OC)c1
82 | 787 | COc1ccc(NC(=O)Nc2cccn3c(C4CCC4)nnc23)c(C)c1
83 | 616 | COCc1ccc(C(=O)Nc2ccnc3ccc(Cl)cc23)o1
84 | 826 | Cn1nnnc1NCc1ccc(-c2cccc(Cl)c2)o1
85 | 1170 | CCn1c(=O)c(C)nc2cc(-c3noc(/C=C/c4ccc(C)cc4)n3)ccc21
86 | 862 | Nc1nc(-c2ccccc2)nn1C(=O)c1ccccc1F
87 | 1240 | CCN1C(=O)COc2ccc(-c3noc(-c4ccc(Br)cc4)n3)cc21
88 | 1140 | Cc1ccc(-c2noc(CN3C(=O)COc4cc(Cl)ccc43)n2)cc1
89 | 993 | O=C(Nc1ccccc1)c1cn(CC2CCCO2)cc2c(=O)n(-c3ccccc3)nc1-2 (stereo unspecified)
90 | 1010 | Cc1nc(C(=O)Nc2ccc(Cl)c(C)c2)c(C)o1
91 | 845 | CCOc1ccc(NC(=O)Cn2c(=O)nc(N3CCCC(C)C3)c3ccccc32)cc1 (stereo unspecified)
